SMILES strings stand for the structures. Where “and” joins values, the source holds several entries; their conditions need not be identical. Equal entries are not always repeated.

The results in this text go back to PubChem BioAssay AID1918945 (Molecular Pharmacology Branch, DTP, NCI, 2023).

The assay relates to 883617-216-R-J1-PDC complex spheroid viability. Kind of assay: Anticancer human tumor 883617-216-R-J1-PDC patient-derived bladder carcinoma cell line growth inhibition. Conditions: for viability, T/C: stronger effect = lower value. The source says: Multicellular complex tumor spheroid response to LSD1 Inhibitor Iadademstat in combination with a variety of drugs and investigational agents in selected tumor cell lines
The current study was undertaken to assess response to LSD1 inhibitors in combination with standard-of-care drugs and investigational agents in solid tumor complex spheroid models as well as in the K-562 leukemia. Complex spheroids include a stromal component modeled by human endothelial cells (HUVEC) and fibroblasts modeled by human mesenchymal stem cells (MSCs). The concentration ranges selected for each drug and investigational agent were based upon clinically achievable concentrations if the clinical Cmax of the agent was known.
Compounds. The drugs and investigational agents used in this study are listed on Table 1. All of the agents used, including staurosporine (NSC755774) and gemcitabine (NSC613327), were obtained from the Developmental Therapeutics Program, NCI. FDA-approved anticancer drugs are available from the NCI at http://dtp.nci.nih.gov/branches/dscb/oncology_drugset_explanation.html. Drugs and investigational agents were >95% pure by proton nuclear magnetic resonance (NMR) and liquid chromatography/mass spectrometry (LC/MS). Stock solutions were prepared at 400x in DMSO, stored at -70 degrees C, and diluted in fresh medium prior to their use. The final concentration of DMSO in cell culture wells never exceeded 0.25% (v/v). The FDA-approved anticancer drug set is available from the Developmental Therapeutics Program at https://dtp.cancer.gov/organization/dscb/obtaining/available_plates.htm. All drugs and investigational agents were tested over a range starting from a high concentration at or near the clinical Cmax and decreasing in half-log increments. If the clinical Cmax for an agent had not been determined, the highest concentration tested was 10 microM.
Cell Lines. The patient-derived cancer cell (PDC) lines: 292921-168-R-J2-PDC, K24384-001-R-PDC, and 521955-158-R2-J5-PDC pancreatic carcinomas, 556581-035-R-J1 ovarian carcinoma, 324938-238-R-J1-PDC, 855422-203-R-J1-PDC and 883617-216-R-J1-PDC urothelial bladder carcinomas, 743489-274-T-PDC renal cell carcinoma, 138582-R-J1 Merkel cell tumor, K60290-347-R-J1 and K57222-313-R-J1-PDC glioblastomas, 653999-131-R-J2-PDC, LG0703-F948-PDC, and 349418-098-R-PDC non-small cell lung carcinomas, 885512-296-R-J2-PDC, 171881-019-R-J1-PDC breast carcinomas and 186277-243-T-J2-PDC and 233499-124-R-J2-PDC colon carcinomas were obtained from the NCI Patient-Derived Models Repository (PDMR, https://pdmr.cancer.gov). The established cell lines NCI/ADR-RES (RRID:CVCL_14520 and OVCAR-5 (RRID:CVCL_1628) ovarian carcinomas, 786-O (RRID:CVCL_1051) and A498 (RRID:CVCL_A498) renal cell carcinoma, NCI-H211 (ATCC, cat. CRL-5824; RRID:CVCL_1529), NCI-H196 (ATCC, cat. CRL-5823, RRID:CVCL_1509), SW 1271 (ATCC, cat. CRL-2177, RRID:CVCL_1716) and NCI-H1876 (ATCC, cat. CRL-5902, RRID:CVCL_1503) small cell lung carcinomas, MDA-MB-231 (RRID:CVCL_0062) and MDA-MB-468 (RRID:CVCL_0419)breast carcinomas (10-12). Pooled donor human umbilical vein endothelial cells (HUVEC, Lonza, cat. CC-2519) and human mesenchymal stem cells (hMSC, Lonza, cat. PT-2501) were purchased from Lonza (Walkersville, MD).
Cell Culture. All cells were maintained in an incubator at 37 degrees C and 5% CO2 with 95% humidity. The PDC lines were cultured according to standard operating procedures established by the NCI PDMR (https://pdmr.cancer.gov). Briefly all PDCs were thawed and cultured in Matrigel-coated flasks prepared with a working solution of 1X Ham's F-12 nutrient mix, without supplementation (Invitrogen, Waltham, MA, cat. 11765054), 100 U/mL penicillin-streptomycin (Invitrogen, cat. 15140122), and 2.5% Matrigel (Corning Inc., Corning, NY, cat. 354248) for the first three passages. […]
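Further: exposure lasted seven days after three days of spheroid growth.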
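Wherever viability, T/C is given: 100% = DMSO vehicle control luminescence.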

Consider `CCc1c2c(nc3ccc(O)cc13)-c1cc3c(c(=O)n1C2)COC(=O)[C@]3(O)CC`, for which the viability, T/C (usually the result in the treated group divided by that in the control group, in per cent) (compound 0.000949 µM) is 34.5% and 24.9%; the viability, T/C (compound 0.003 µM) is 27.7% and 18.2%; the viability, T/C (compound 0.00949 µM) is 22.8% and 18.7%; the viability, T/C (compound 0.03 µM) was 24.2% and 13%; the viability, T/C (compound 0.0949 µM) is 1.74% and 0.3%; the viability, T/C (compound 0.3 µM) was 0.21% and 0.19%. In addition, the IC50 (usually the midpoint of a concentration-inhibition curve) (curve of compound) was less than 0.949 nM.
`CC1COCCN1c1cc(C2(S(C)(=N)=O)CC2)nc(-c2ccnc3[nH]ccc23)n1` (centres undefined) + NC1CC1c1ccc(-c2cccc(O)c2)cc1: the 50% inhibitory concentration (IC50) was found to be 357 nM (curve of first compound, second compound 0.1 µM); 435 nM (curve of first compound, second compound 0.316 µM); 501 nM (curve of first compound, second compound 1 µM); 259 nM (curve of first compound, second compound 3.16 µM); 152 nM (curve of first compound, second compound 10 µM). Further, the viability, T/C was 97.8% (second compound 0.1 µM, first compound 0.0316 µM); 78.5% (second compound 0.1 µM, first compound 0.1 µM); 51.9% (second compound 0.1 µM, first compound 0.316 µM); 35% (second compound 0.1 µM, first compound 1 µM); 28.9% (second compound 0.1 µM, first compound 3.16 µM); 27.7% (second compound 0.1 µM, first compound 10 µM). In addition, the viability, T/C by setting is: (second compound 0.316 µM, first compound 0.0316 µM) 112%; (second compound 0.316 µM, first compound 0.1 µM) 76.6%; (second compound 0.316 µM, first compound 0.316 µM) 55%; (second compound 0.316 µM, first compound 1 µM) 38.2%; (second compound 0.316 µM, first compound 3.16 µM) 31.8%; (second compound 0.316 µM, first compound 10 µM) 25.2%. For the same compound, the viability, T/C by setting is: (second compound 1 µM, first compound 0.0316 µM) 101%; (second compound 1 µM, first compound 0.1 µM) 77.4%; (second compound 1 µM, first compound 0.316 µM) 55.3%; (second compound 1 µM, first compound 1 µM) 41.5%; (second compound 1 µM, first compound 3.16 µM) 29.1%; (second compound 1 µM, first compound 10 µM) 22.4%. For the same compound, the viability, T/C by setting is: (second compound 3.16 µM, first compound 0.0316 µM) 88.5%; (second compound 3.16 µM, first compound 0.1 µM) 65.3%; (second compound 3.16 µM, first compound 0.316 µM) 46.1%; (second compound 3.16 µM, first compound 1 µM) 35%; (second compound 3.16 µM, first compound 3.16 µM) 31.5%; (second compound 3.16 µM, first compound 10 µM) 24.6%. Moreover, the viability, T/C (second compound 10 µM, first compound 0.0316 µM) is 81%; the viability, T/C (second compound 10 µM, first compound 0.1 µM) was 58.4%; the viability, T/C (second compound 10 µM, first compound 0.316 µM) was 34.6%; the viability, T/C (second compound 10 µM, first compound 1 µM) was 29.3%; the viability, T/C (second compound 10 µM, first compound 3.16 µM) is 25.8%; the viability, T/C (second compound 10 µM, first compound 10 µM) is 22.8%.
Consider `COc1cc(Nc2ncc3c(n2)-c2ccc(Cl)cc2C(c2c(F)cccc2OC)=NC3)ccc1C(=O)O`, for which the viability, T/C is 99.2% and 68.6% (compound 0.00316 µM); 73.5% and 63.5% (compound 0.01 µM); 53.3% and 44% (compound 0.0316 µM); 49% and 36.2% (compound 0.1 µM); 45.1% and 34.5% (compound 0.316 µM); 48.5% and 34.6% (compound 1 µM). Also, the IC50 (curve of compound) is 66.9 nM and 22.3 nM.
In the case of `CC1COCCN1c1cc(-c2ccnn2C)c2ccnc(-c3ccn[nH]3)c2n1` (centres undefined), the viability, T/C is, setting by setting: (compound 0.00316 µM) 83.2% and 50.8%; (compound 0.01 µM) 64.8% and 42.2%; (compound 0.0316 µM) 47% and 33.7%; (compound 0.1 µM) 35% and 27.4%; (compound 0.316 µM) 34.6% and 23.9%; (compound 1 µM) 26.3% and 21.2%. In addition, where the note is “curve of compound”, the IC50 was 26.5 nM and 3.53 nM.
For `NC1CCC(NC2CC2c2ccccc2)CC1` (centres undefined), the viability, T/C is 103% [middle of 25 runs] (compound 0.1 µM); 107% and 112% (compound 0.316 µM); 104% [middle of 25 runs] (compound 1 µM); 105% [middle of 25 runs] (compound 3.16 µM); 107% [middle of 23 runs] (compound 10 µM). Further, where the note is “compound alone, run of 11/29/2021”, the IC50 was greater than 10000 nM.
As to `CC(C)c1c(-c2ccccc2)nc2c(C#N)c[nH]n2c1=O`, the viability, T/C is, setting by setting: (compound 0.0316 µM) 97.4% and 97.3%; (compound 0.1 µM) 97.7% and 103%; (compound 0.316 µM) 104% and 111%; (compound 1 µM) 96% and 94.4%; (compound 3.16 µM) 98.8% and 101%; (compound 10 µM) 86.8% and 86.7%. Under “curve of compound”, the IC50 is greater than 10000 nM.
